Assay results as given in US20230398087A1, “APPLICATION OF BZP IN TREATMENT OF ISCHEMIC CARDIOVASCULAR AND CEREBRAL VASCULAR DISEASES” (priority 2020, published 2023).

Test system: acute global cerebral ischemia in rats
Assay: Acute global cerebral ischemia in rats, volume of cerebral infarction (nuclear magnetic resonance)
Assay type: in vivo
Conditions: BZP 0.75, 3, 12 and 24 mg/kg; Br-NBP 10.5 mg/kg; NBP-K 9.6 mg/kg; vs model group
Excerpt: 2.7 The Protective Effect of BZP on Acute Global Cerebral Ischemia in Rats: […]

SMILES | volume of cerebral infarction
CCCCC(O)c1ccccc1C(=O)[O-].[K+] (centres unmarked) [NBP-K, reference compound] | significantly reduce
CCCCC1OC(=O)c2cc(Br)ccc21 (centres unmarked) [Br-NBP, reference compound] | significantly reduce
